From patent publication US9090701B2, “Methods of detecting oxidized calcium/calmodulin dependent protein kinase II” (University of Iowa Research Foundation, priority 2008, dated 2015) come the findings set out here.

Data set [1] has as its system cardiomyocytes. Put plainly: ROS detection with DHE in cardiomyocytes. It is filed as cell-based, mouse. The following applies: 100 nM. As for the experimental part: Changes in ROS levels in cultured primary cardiac myocytes after agonist stimulation were measured using the fluorogenic probe dihydroethidium (DHE, 5 μM, Molecular Probes), as previously described (Zimmerman e.g., 2004). DHE fluorescent images were acquired using confocal microscopy (Zeiss LSM510).
In order to validate the connection between AngII and ROS in this experimental model, isolated cardiomyocytes from WT and p47^−/− mice were treated with 100 nM AngII and monitored production of ROS by Imaging DHE, a fluorescent reporter for superoxide and hydrogen peroxide (FIG. 7C). Wild-type cardiomyocytes were incubated with fura-2 AM, a cell-permeant calcium indicator to observe changes in intracellular Ca^2+ ([Ca^2+]i).

The test system of data set [2] is cardiomyocytes. Put plainly: Isolated cardiomyocyte TUNEL staining. It is filed as cell-based, mouse. The following applies: 100 nM, 24 hours. As for the experimental part:
Myocyte isolations from neonatal mouse or rat pups were modified from previously described methods (Mohler e.g., 2007). To generate the primary cardiomyocyte cultures, hearts were dissected from P1 animals and placed in 1 mL of Ham's F-10. Atrial tissue was removed and the ventricular chambers were rinsed to remove any remaining blood. Hearts were transferred into 1.5 mL of 0.05% Trypsin, 200 μM EDTA in Ham's F-10 medium (Mediatech). Hearts were minced into approximately 20 small pieces using forceps and small scissors and incubated in the Trypsin/EDTA medium at 37° C. Following 15 min, the heart pieces were mixed by a Pasteur pipette and incubated for an additional 15 min. A mixture of 200 μL of soybean trypsin inhibitor (2 mg/mL; Worthington) and 200 μL of collagenase (0.2 mg/mL; 1980 units/mg; Sigma) was incubated with the cells for 35-50 min at 37° C. The cell suspension was pelleted, resuspended in “Complete Medium” (40% DMEM, 40% Ham's F-10, 20% FCS), and plated on plastic dishes. Following five hours, the non-adhered cells (cardiomyocytes) were aspirated from the plate, pelleted, resuspended in Complete Medium, and plated on Mattek tissue culture plates (fibronectin-coated; Roche). Cardiomyocytes were washed with Ham's F-10 and Medium was replaced with “Defined Medium” to prevent the growth of fibroblasts. 100× Defined Medium consists of 100 μg/mL insulin, 500 μg/mL transferrin, 100 nM LiCl, 100 nM NaSeO4, and 10 nM thyroxine. To ensure that pure populations of cardiomyocytes were obtained, cultures were immunolabeled with alpha-actinin Ig (cardiomyocyte-specific marker). Only cultures with >90% cardiomyocytes were used in experiments. (See FIG. 12.) Lentiviral treatments (shRNA, rescue constructs) and apoptosis inducing agents (Iso, AngII) were used for 24 hours. Cells were fixed in 4% paraformaldehyde, permeabilized in 0.1% Triton X-100 and sodium citrate, and stained using In Situ cell death detection kits, TMR Red (Roche). TUNEL stain assays were interpreted as previously described (Yang e.g., 2006). Nuclei were co-stained with DAPI. Investigators were blinded to the genetic identity and treatment of the mice in all studies.
Cardiomyocytes from mice that express an inhibitory peptide against CaMKII (AC3-I, Zhang e.g., 2005) were treated with 100 nM AngII for 24 hours in parallel with isolated cardiomyocytes from WT and p47^−/− mice. […] Activity assays for caspase-3, a downstream target enzyme in the CaMKII apoptotic signaling pathway in heart, recapitulated the results from the TUNEL assay (FIG. 7A).

The test system of the next data set is heart. On the set-up: species or system mice. The conditions noted are these: mouse, in vivo. As for the experimental part: Mice were anesthetized with ketamine (87.5 mg/kg) and xylazine (12.5 mg/kg), and a small incision was made in the skin near the spine, approximately 1 cm above the hip. Minipumps containing saline or AngII (3 mg/kg/day) were inserted and the skin was sutured closed. Other mice were given, daily injections of Iso (30 mg/kg/day, intraperitoneal) for 7 days. Animals were then sacrificed and the heart was removed, fixed, and embedded in paraffin. Transverse heart sections of 5 μm thickness were made. To confirm the identity of cardiomyocytes, heart sections were immunolabeled with alpha-actinin Ig (cardiomyocyte-specific marker). Only sections with >90% cardiomyocytes were used in experiments. (See FIG. 13.) Paraffin was removed, and TUNEL staining was performed using In Situ cell death detection kits, TMR Red (Roche). Nuclei were co-stained with DAPI. To determine percent of TUNEL positive nuclei, whole heart sections were divided into four quadrants and one image was taken at random within each quadrant. In the case of sections from post-MI mice, an average of 50% of the heart quadrants were from portions of the heart adjacent to the MI. An investigator blinded to the identity and treatment of the mice counted the number of total and TUNEL positive cells in each image. […]

As for “angiotensin II (DRVYIHPF; Angiotensin-2; UniProt P01019 25-32, looked up) [AngII, oxidant stimulating agent in cardiac tissue]”, the ROS production result in the data set with cardiomyocytes [1] (WT cardiomyocytes) was “significant increase in ROS production”. In addition, the “ROS production (significant increase)” value with cardiomyocytes [1] (p47−/− cardiomyocytes) is “not”. The “Percent of TUNEL positive nuclei” value with cardiomyocytes [2] (WT cells) is “significant increase”; in the data set with cardiomyocytes [2] (p47−/− or AC3-I cardiomyocytes), “no significant effect”. Also, the “TUNEL staining of hearts” value with heart is “increased TUNEL staining”.
